# According to patent US9642846B2, “Antifungal drugs” (GEORGETOWN UNIVERSITY, priority 2013, dated 2017):
# Assays:
# C. guilliermondii = experiment: MIC80 broth microdilution; type: cell-based, Candida guilliermondii; settings: Meyerozyma guilliermondii, 80% growth inhibition, RPMI-1640
# From the text: (§1) Fluconazole, an ergosterol inhibitor, and the beta-1,3-glucan inhibitor micafungin served as controls (See Tables 1 and 2).
# (§2) The minimum inhibitory concentrations resulting in 80% growth inhibition (MIC of multiple Candida species (Candida albicans, Candida tropicalis, Candida, guilliermondii, Candida glabrata, Candida lusitaniae, Candida parapsilois, Candida neoformans, Candida krusei, and Candida apicola) as well as Aspergillus fumigatus to a set of formula (II), (III), (IV), and (V) was determined in accordance with the guidelines in CLSI document M27-A2 (Clinical and Laboratory Standards Institute; Wayne, Pa.). The total volume of cells and drug was 100 μL per microtiter well, and each drug was diluted in RPMI to achieve final concentrations of 0.2-100 μg/ml. Uninoculated cultures were used as a reference standard. Stock inoculum suspensions were prepared from 24 hour cultures on YPD (yeast extract/peptone/dextrose) media at 30° C.
# (§3) For MIC determinations, an inoculum of 1.0×10^3 cells of Candida and 2.0×10^3 cells of Aspergillus per well were used, and cells in diluted drugs were prepared in RPMI-1640 medium. MICs were determined both visually and spectrophotometrically at 24 hours and 48 h at 550 nm using a micro plate reader. The MIC80 endpoint was measured as the lowest drug concentration resulting in a reduction of growth of 80% or more compared with growth of the control.
# C. glabrata = experiment: MIC80 broth microdilution; type: cell-based, Candida glabrata; settings: Nakaseomyces glabratus, 80% growth inhibition, RPMI-1640
# From the text: as §1, §2, §3
# C. parapsilosis = experiment: MIC80 broth microdilution; type: cell-based, Candida parapsilosis; settings: Lodderomyces parapsilosis, 80% growth inhibition, RPMI-1640
# From the text: as §1, §2, §3
# C. lusitaniae = experiment: MIC80 broth microdilution; type: cell-based, Candida lusitaniae; settings: Clavispora lusitaniae, 80% growth inhibition, RPMI-1640
# From the text: as §1, §2, §3
# C. apicola = experiment: MIC80 broth microdilution; type: cell-based, Candida apicola; settings: Starmerella apicola, 80% growth inhibition, RPMI-1640
# From the text: as §1, §2, §3
# C. krusei = experiment: MIC80 broth microdilution; type: cell-based, Candida krusei; settings: Pichia kudriavzevii, 80% growth inhibition, RPMI-1640
# From the text: as §1, §2, §3
# C. neoformans H99 = experiment: MIC80 broth microdilution; type: cell-based, Candida neoformans; settings: Cryptococcus neoformans, 80% growth inhibition, RPMI-1640
# From the text: as §1, §2, §3
# C. neoformans JEC-21 = experiment: MIC80 broth microdilution; type: cell-based, Candida neoformans; settings: Cryptococcus neoformans, JEC21, 80% growth inhibition, RPMI-1640
# From the text: as §1, §2, §3
# C. albicans (CaMDR) = experiment: MIC80 broth microdilution; type: cell-based; settings: Candida albicans, read-out: Activity (MIC80)
# From the text: as §1, §2, §3
# C. albicans (SC5314) = experiment: MIC80 broth microdilution; type: cell-based; settings: Candida albicans, 80% growth inhibition, RPMI-1640, read at 24 and 48 h
# From the text: as §1, §2, §3
# C. tropicalis = experiment: MIC80 broth microdilution; type: cell-based; settings: Candida tropicalis, 80% growth inhibition, RPMI-1640
# From the text: as §1, §2, §3
# A. fumigatus AF293 = experiment: MIC80 broth microdilution; type: cell-based; settings: Aspergillus fumigatus, 80% growth inhibition, RPMI-1640
# From the text: as §1, §2, §3
# A. fumigatus H11-20 = experiment: MIC80 broth microdilution; type: cell-based; settings: Aspergillus fumigatus, H1120, 80% growth inhibition, RPMI-1640
# From the text: as §1, §2, §3
# MDR A. fumigatus = experiment: MIC80 broth microdilution; type: cell-based; settings: Aspergillus fumigatus, 80% growth inhibition, RPMI-1640
# From the text: as §1, §2, §3
# HepG2 liver cell = experiment: MTT toxicity assay; type: cell-based, human; settings: MTT after 24 hours and 48 hours
# Method: (§4) The MTT assay is a colorimetric assay that measures the reduction of yellow 3-(4,5-dimethythiazol-2-yl)-2,5-diphenyl tetrazolium bromide (MTT) by mitochondrial succinate dehydrogenase. The MIT enters the cells and passes into the mitochondria where it is reduced to an insoluble, dark purple, formazan product. The cells are then solubilized with an organic solvent (e.g., isopropanol) and the released, solubilized formazan reagent is measured spectrophotometrically. Since reduction of MTT can only occur in metabolically active cells, the level of activity is a measure of the viability of the cells.
# (§5) Cells of the HepG2 liver cell, NIH/3T3 fibrolast cell, or 293T kidney cell were seeded in a 96 well plate. The plate was incubated overnight at 37° C. in a humidified incubator, 5% CO2. Compounds of formula (II), (III), (IV), (V), and (VI) were added to the plate. Different concentrations of drug were tested in triplicate along with a negative control. The final volume was adjusted to 100 μl per well. The plate was incubated overnight at 37° C. in a humidified incubator, 5% CO2. After 24 hours and 48 hours, MTT reagent (5 mg/ml, 10 μl/100 μl per well of the 96 well plate) was added and incubated at 37° C. for 3 hours. After 3 hours, 100 μl of the DMSO solution was added to each well and the plate was rocked at room temperature for 1 hour. The plate was then read on a plate reader at […]. The results are shown below in tables 1 and 2.
# 293T kidney cell = experiment: MTT toxicity assay; type: cell-based; settings: MTT after 24 hours and 48 hours
# Method: as §4, §5
# NIH/3T3 Fibroblast cell = experiment: MTT toxicity assay; type: cell-based; settings: MTT after 24 hours and 48 hours
# Method: as §4, §5
# C. albicans (wild type) = experiment: E-test of formula (II) and fluconazole; type: cell-based, Candida albicans; settings: fluconazole E test strips on YPD plate, 48 h at 30° C.
# Method: E test strips (Biomerieux) containing a graded series of fluconazole concentration are placed on a YPD plate that had been previously inoculated to confluency with C. albicans. The strip plate that was inoculated, is incubated for 48 h at 30° C. The zone of inhibition at the lowest concentration of fluconazole is read as the MIC. The results, shown in FIG. 2, indicate synergy between the compound of formula (II) and fluconazole.
Compound,MIC80 (C. guilliermondii),MIC80 (C. glabrata),MIC80 (C. parapsilosis),MIC80 (C. lusitaniae),MIC80 (C. apicola),MIC80 (C. krusei),MIC80 (C. neoformans H99),MIC80 (C. neoformans JEC-21),MIC80 (C. albicans (CaMDR)),MIC80 (C. albicans (SC5314)),MIC80 (C. tropicalis),MIC80 (A. fumigatus AF293),MIC80 (A. fumigatus H11-20),MIC80 (MDR A. fumigatus),toxicity (MTT) (HepG2 liver cell),toxicity (MTT) (293T kidney cell),toxicity (MTT) (NIH/3T3 Fibroblast cell),interaction with fluconazole (E-test) (C. albicans (wild type))
"OC(Cn1cncn1)(Cn1cncn1)c1ccc(F)cc1F [Fluconazole, reference compound]",2 µg/mL,2 µg/mL,1 µg/mL,2 µg/mL,0.25 µg/mL,32 µg/mL,4 µg/mL,2 µg/mL,32 µg/mL,0.25 µg/mL,0.5 µg/mL,–,–,–,–,–,–,–
"CCC(C)n1ncn(-c2ccc(N3CCN(c4ccc(OCC5COC(Cn6cncn6)(c6ccc(Cl)cc6Cl)O5)cc4)CC3)cc2)c1=O (stereo not shown) [Itraconazole, reference compound]",–,–,–,–,–,–,–,–,–,–,–,0.5 µg/mL,0.5 µg/mL,> 100 µg/mL,–,–,–,–
COc1cc2cc[n+]3c(C)c4cc5c(cc4cc3c2cc1OC)OCO5 [compound 156624],4 µg/mL,1 µg/mL,8 µg/mL,1 µg/mL,4 µg/mL,4 µg/mL,8 µg/mL,1 µg/mL,0.2 µg/mL,4 µg/mL,4 µg/mL,4 µg/mL,4 µg/mL,4 µg/mL,80 µg/mL,80 µg/mL,>100 µg/mL,–
Cc1c2cc3c(cc2cc2c4cc5c(cc4cc[n+]12)OCO5)OCO3 [compound 156627],0.5 µg/mL,< 0.2 µg/mL,1 µg/mL,< 0.2 µg/mL,0.5 µg/mL,0.5 µg/mL,1 µg/mL,< 0.2 µg/mL,0.05 µg/mL,0.5 µg/mL,0.5 µg/mL,0.5 µg/mL,0.5 µg/mL,0.5 µg/mL,25 µg/mL,25 µg/mL,40 µg/mL,synergy
CCc1c2cc3c(cc2cc2c4cc5c(cc4cc[n+]12)OCO5)OCO3 [compound 157108],2 µg/mL,0.2 µg/mL,2 µg/mL,0.2 µg/mL,1 µg/mL,2 µg/mL,2 µg/mL,0.2 µg/mL,0.2 µg/mL,1 µg/mL,2 µg/mL,1 µg/mL,1 µg/mL,1 µg/mL,64 µg/mL,70 µg/mL,100 µg/mL,–
COc1cc2cc3c4cc5c(cc4cc[n+]3c(C)c2cc1OC)OCO5 [compound 160459],4 µg/mL,0.5 µg/mL,8 µg/mL,1 µg/mL,4 µg/mL,4 µg/mL,8 µg/mL,0.5 µg/mL,0.1 µg/mL,4 µg/mL,4 µg/mL,4 µg/mL,4 µg/mL,4 µg/mL,50 µg/mL,60 µg/mL,80 µg/mL,–
COc1ccc2cc3c4cc5c(cc4cc[n+]3cc2c1OC)OCO5 [compound 403831],1 µg/mL,0.25 µg/mL,2 µg/mL,0.5 µg/mL,1 µg/mL,2 µg/mL,0.5 µg/mL,0.5 µg/mL,0.1 µg/mL,1 µg/mL,1 µg/mL,1 µg/mL,1 µg/mL,1 µg/mL,80 µg/mL,80 µg/mL,96 µg/mL,–
